Laboratory results as given in patent publication US9708308B2, “Factor IXa inhibitors” (Merck Sharp & Dohme Corp., priority 2012, dated 2017).

target: Factor IXa (Homo sapiens, UniProt P00740); assay: Determination of inhibitory activity against Factor IXa (cleavage of fluorescent peptide substrate); format: biochemical; settings: cleavage of fluorescent peptide CH3SO2-D-CHG-Gly-Arg-AFC, release of AFC; read-out: FIXa IC50
Method in brief: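 Factor IXa activity followed via cleavage of CH3SO2-D-CHG-Gly-Arg-AFC, releasing AFC. Fluorescence read at excitation 405 nm, emission 510 nm.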

Sequence of Factor IXa (P00740 227-461 limits assumed): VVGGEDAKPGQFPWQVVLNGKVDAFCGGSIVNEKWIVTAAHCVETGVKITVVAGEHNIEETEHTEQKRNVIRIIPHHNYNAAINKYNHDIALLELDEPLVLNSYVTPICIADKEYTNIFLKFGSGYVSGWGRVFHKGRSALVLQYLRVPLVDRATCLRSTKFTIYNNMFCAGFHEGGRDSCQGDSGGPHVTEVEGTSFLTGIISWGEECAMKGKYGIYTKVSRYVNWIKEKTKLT
Sequence of Factor IXa (P00740 47-191 partner limits assumed): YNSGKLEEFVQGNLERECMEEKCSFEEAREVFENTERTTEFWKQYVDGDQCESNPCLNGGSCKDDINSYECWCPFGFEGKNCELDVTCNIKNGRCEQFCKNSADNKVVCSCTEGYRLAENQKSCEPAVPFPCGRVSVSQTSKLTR

IC50 | SMILES
224 nM | C[C@]1([C@@H](O)C(=O)Nc2cc(Cl)c3c(N)noc3c2)OCCN(c2ccn(-c3ccncc3)n2)C1=O [Example 128, (R)—N-(3-amino-4-chlorobenzo[d]isoxazol-6-yl)-2-hydroxy-2-((R)-2-methyl-3-oxo-4-(1-(pyridin-4-yl)-1H-pyrazol-3-yl)morpholin-2-yl)acetamide]
49.8 nM | C[C@](O)(C(=O)Nc1cc(F)c2c(N)noc2c1)[C@H]1OCCN(c2ccn(-c3ccncc3)n2)C1=O [Example 129, (R)—N-(3-amino-4-fluorobenzo[d]isoxazol-6-yl)-2-hydroxy-2-((R)-3-oxo-4-(1-(pyridin-4-yl)-1H-pyrazol-3-yl)morpholin-2-yl)propanamide]
211 nM | Cc1cc(-n2ccc(N3CCO[C@H]([C@@](C)(O)C(=O)Nc4cc(F)c5c(N)noc5c4)C3=O)n2)ccn1 [Example 130, (R)—N-(3-amino-4-fluorobenzo[d]isoxazol-6-yl)-2-hydroxy-2-((R)-4-(1-(2-methylpyridin-4-yl)-1H-pyrazol-3-yl)-3-oxomorpholin-2-yl)propanamide]
95.2 nM | C[C@](O)(C(=O)Nc1cc(F)c2c(N)noc2c1)[C@H]1OCCN(c2ccn(-c3ccnc(C(F)(F)F)c3)n2)C1=O [Example 131, (R)—N-(3-amino-4-fluorobenzo[d]isoxazol-6-yl)-2-hydroxy-2-((R)-3-oxo-4-(1-(2-(trifluoromethyl)pyridin-4-yl)-1H-pyrazol-3-yl)morpholin-2-yl)propanamide]
117 nM | C[C@](O)(C(=O)Nc1cc(F)c2c(N)noc2c1)[C@H]1OCCN(c2ccn(-c3ccnc(C#N)c3)n2)C1=O [Example 132, (R)—N-(3-amino-4-fluorobenzo[d]isoxazol-6-yl)-2-((R)-4-(1-(2-cyanopyridin-4-yl)-1H-pyrazol-3-yl)-3-oxomorpholin-2-yl)-2-hydroxypropanamide]
275 nM | COc1cc(-n2ccc(N3CCO[C@H]([C@@](C)(O)C(=O)Nc4cc(F)c5c(N)noc5c4)C3=O)n2)ccn1 [Example 133, (R)—N-(3-amino-4-fluorobenzo[d]isoxazol-6-yl)-2-hydroxy-2-((R)-4-(1-(2-methoxypyridin-4-yl)-1H-pyrazol-3-yl)-3-oxomorpholin-2-yl)propanamide]
55.2 nM | C[C@](O)(C(=O)Nc1cc(F)c2c(N)noc2c1)[C@H]1OCCN(c2nn(-c3ccncc3)cc2F)C1=O [Example 134, (R)—N-(3-amino-4-fluorobenzo[d]isoxazol-6-yl)-2-((R)-4-(4-fluoro-1-(pyridin-4-yl)-1H-pyrazol-3-yl)-3-oxomorpholin-2-yl)-2-hydroxypropanamide]
10.2 nM | C[C@](O)(C(=O)Nc1cc(F)c2c(N)noc2c1)[C@H]1OCCN(c2ccn(-c3ccnnc3)n2)C1=O [Example 135, (R)—N-(3-amino-4-fluorobenzo[d]isoxazol-6-yl)-2-hydroxy-2-((R)-3-oxo-4-(1-(pyridazin-4-yl)-1H-pyrazol-3-yl)morpholin-2-yl)propanamide]
53.2 nM | C[C@](O)(C(=O)Nc1cc(F)c2c(N)noc2c1)[C@H]1OCCN(c2ccn(-c3cnnc(N4CCC4)c3)n2)C1=O [Example 136, (R)—N-(3-amino-4-fluorobenzo[d]isoxazol-6-yl)-2-((R)-4-(1-(6-(azetidin-1-yl)pyridazin-4-yl)-1H-pyrazol-3-yl)-3-oxomorpholin-2-yl)-2-hydroxypropanamide]
190 nM | CC(C)Oc1cc(-n2ccc(N3CCO[C@H]([C@@](C)(O)C(=O)Nc4cc(F)c5c(N)noc5c4)C3=O)n2)cnn1 [Example 137, (R)—N-(3-amino-4-fluorobenzo[d]isoxazol-6-yl)-2-hydroxy-2-((R)-4-(1-(6-isopropoxypyridazin-4-yl)-1H-pyrazol-3-yl)-3-oxomorpholin-2-yl)propanamide]
7.11 nM | C[C@](O)(C(=O)Nc1cc(F)c2c(N)noc2c1)[C@H]1OCCN(c2ccn(-c3cnnc(C#N)c3)n2)C1=O [Example 138, (R)—N-(3-amino-4-fluorobenzo[d]isoxazol-6-yl)-2-((R)-4-(1-(6-cyanopyridazin-4-yl)-1H-pyrazol-3-yl)-3-oxomorpholin-2-yl)-2-hydroxypropanamide]
14 nM | COc1cc(-n2ccc(N3CCO[C@H]([C@@](C)(O)C(=O)Nc4cc(F)c5c(N)noc5c4)C3=O)n2)cnn1 [Example 139, (R)—N-(3-amino-4-fluorobenzo[d]isoxazol-6-yl)-2-hydroxy-2-((R)-4-(1-(6-methoxypyridazin-4-yl)-1H-pyrazol-3-yl)-3-oxomorpholin-2-yl)propanamide]
5.61 nM | C[C@](O)(C(=O)Nc1cc(F)c2c(N)noc2c1)[C@H]1OCCN(c2nn(-c3ccnnc3)cc2F)C1=O [Example 140, (R)—N-(3-amino-4-fluorobenzo[d]isoxazol-6-yl)-2-((R)-4-(4-fluoro-1-(pyridazin-4-yl)-1H-pyrazol-3-yl)-3-oxomorpholin-2-yl)-2-hydroxypropanamide]
107 nM | COc1nccc(-n2ccc(N3CCO[C@H]([C@@](C)(O)C(=O)Nc4cc(F)c5c(N)noc5c4)C3=O)n2)n1 [Example 141, (R)—N-(3-amino-4-fluorobenzo[d]isoxazol-6-yl)-2-hydroxy-2-((R)-4-(1-(2-methoxypyrimidin-4-yl)-1H-pyrazol-3-yl)-3-oxomorpholin-2-yl)propanamide]
6.27 nM | C[C@]1([C@@H](O)C(=O)Nc2cc(F)c3c(N)noc3c2)OCCN(c2ccn(-c3ccnnc3)n2)C1=O [Example 142, (R)—N-(3-amino-4-fluorobenzo[d]isoxazol-6-yl)-2-hydroxy-2-((R)-2-methyl-3-oxo-4-(1-(pyridazin-4-yl)-1H-pyrazol-3-yl)morpholin-2-yl)acetamide]
22.1 nM | COc1nccc(-n2ccc(N3CCO[C@](C)([C@@H](O)C(=O)Nc4cc(F)c5c(N)noc5c4)C3=O)n2)n1 [Example 143, (R)—N-(3-amino-4-fluorobenzo[d]isoxazol-6-yl)-2-hydroxy-2-((R)-4-(1-(2-methoxypyrimidin-4-yl)-1H-pyrazol-3-yl)-2-methyl-3-oxomorpholin-2-yl)acetamide]
458 nM | C[C@](O)(C(=O)Nc1cnc2c(N)noc2c1)[C@H]1OCCN(c2ccn(-c3ccncc3)n2)C1=O [Example 144, (R)—N-(3-aminoisoxazolo[4,5-b]pyridin-6-yl)-2-hydroxy-2-((R)-3-oxo-4-(1-(pyridin-4-yl)-1H-pyrazol-3-yl)morpholin-2-yl)propanamide]
1100 nM | COc1cc(-n2ccc(N3CCO[C@H]([C@@](C)(O)C(=O)Nc4ccc5[nH]c(C)c(Cl)c5c4)C3=O)n2)ccn1 [Example 145, (R)—N-(3-chloro-2-methyl-1H-indol-5-yl)-2-hydroxy-2-((R)-4-(1-(2-methoxypyridin-4-yl)-1H-pyrazol-3-yl)-3-oxomorpholin-2-yl)propanamide]
28.1 nM | Cc1[nH]c2ccc(NC(=O)[C@](C)(O)[C@H]3OCCN(c4ccn(-c5ccnnc5)n4)C3=O)cc2c1Cl [Example 146, (R)—N-(3-chloro-2-methyl-1H-indol-5-yl)-2-hydroxy-2-((R)-3-oxo-4-(1-(pyridazin-4-yl)-1H-pyrazol-3-yl)morpholin-2-yl)propanamide]
62.6 nM | C[C@](O)(C(=O)Nc1ccc2c(N)noc2c1)[C@@]1(C)OCCN(c2ccn(-c3ccnnc3)n2)C1=O [Example 148, (R)—N-(3-Aminobenzo[d]isoxazol-6-yl)-2-hydroxy-2-((R)-2-methyl-3-oxo-4-(1-(pyridazin-4-yl)-1H-pyrazol-3-yl)morpholin-2-yl)propanamide]
92.4 nM | COc1cc(-n2ccc(N3CCO[C@](C)([C@@](C)(O)C(=O)Nc4ccc5c(N)noc5c4)C3=O)n2)cnn1 [Example 149, (R)—N-(3-aminobenzo[d]isoxazol-6-yl)-2-hydroxy-2-((R)-4-(1-(6-methoxypyridazin-4-yl)-1H-pyrazol-3-yl)-2-methyl-3-oxomorpholin-2-yl)propanamide]
66.2 nM | C[C@](O)(C(=O)Nc1ccc(CN)cc1)[C@H]1OCCN(c2ccn(-c3ccncc3)n2)C1=O [Example 150, (R)—N-(4-(aminomethyl)phenyl)-2-hydroxy-2-((R)-3-oxo-4-(1-(pyridin-4-yl)-1H-pyrazol-3-yl)morpholin-2-yl)propanamide]
70 nM | C[C@](O)(C(=O)Nc1ccc(CN)c(F)c1)[C@H]1OCCN(c2ccn(-c3ccncc3)n2)C1=O [Example 151, (R)—N-(4-(aminomethyl)-3-fluorophenyl)-2-hydroxy-2-((R)-3-oxo-4-(1-(pyridin-4-yl)-1H-pyrazol-3-yl)morpholin-2-yl)propanamide]
9.69 nM | C[C@]1([C@@H](O)C(=O)Nc2ccc(CN)cc2)OCCN(c2ccn(-c3ccncc3)n2)C1=O [Example 152, (R)—N-(4-(aminomethyl)phenyl)-2-hydroxy-2-((R)-2-methyl-3-oxo-4-(1-(pyridin-4-yl)-1H-pyrazol-3-yl)morpholin-2-yl)acetamide]
12.7 nM | C[C@]1([C@@H](O)C(=O)Nc2ccc(CN)c(F)c2)OCCN(c2ccn(-c3ccncc3)n2)C1=O [Example 153, (R)—N-(4-(aminomethyl)-3-fluorophenyl)-2-hydroxy-2-((R)-2-methyl-3-oxo-4-(1-(pyridin-4-yl)-1H-pyrazol-3-yl)morpholin-2-yl)acetamide]
1.98 nM | C[C@@H]1CN(c2ccn(-c3cnnc(C#N)c3)n2)C(=O)[C@@H]([C@@H](O)C(=O)Nc2ccc3c(N)noc3c2)O1 [Example 154, (R)—N-(3-Aminobenzo[d]isoxazol-6-yl)-2-((2R,6R)-4-(1-(6-cyanopyridazin-4-yl)-1H-pyrazol-3-yl)-6-methyl-3-oxomorpholin-2-yl)-2-hydroxyacetamide]
1.96 nM | C[C@H]1CN(c2ccn(-c3cnnc(C#N)c3)n2)C(=O)[C@@H]([C@@H](O)C(=O)Nc2ccc3c(N)noc3c2)O1 [Example 155, (R)—N-(3-Aminobenzo[d]isoxazol-6-yl)-2-((2R,6S)-4-(1-(6-cyanopyridazin-4-yl)-1H-pyrazol-3-yl)-6-methyl-3-oxomorpholin-2-yl)-2-hydroxyacetamide]
